Results published in patent publication US6218384A, “3-Oxo-pyrido(1,2-a)benzimidazole-4-carboxyl and 4-oxo-azepino(1,2-a)benzimidazole-5-carboxyl derivatives useful in treating central nervous system disorders” (Ortho-McNeil Pharmaceutical, Inc., priority 1997, dated 2001).
Like-named read-outs stand apart in the source and are kept apart here.

How the values were obtained:
[1] = Horizontal Screen Test for Determining Benzodiazepine Antagonism; format: in vivo, male CD1 mice; conditions: mice; given parenterally with chlordiazepoxide (28 mg/kg, sc); values above 0 considered active
Description: Some of the compounds of the invention were tested for their ability to antagonize the locomotor discoordinating property of chlordiazepoxide. Male CD1 mice, fasted for at least 16 hours but allowed access to water except during the period of observation, were placed on a horizontally-held screen (mesh size 1/4", wire diameter approximately 1.0 mm). The screen was inverted and mice which successfully climb to the top side of the screen within one minute were selected for testing. Selected mice were weighed and divided into equal groups. Test compounds or vehicle were administered to those mice parenterally at the same time as chlordrazepoxide (28 mg/kg, sc). At a pre-determined interval (or intervals) after administration, the animals were tested for their ability to climb to the top side of the inverted screen (pass the test). Activity is reported as the percent antagonism of the number of animals that fail the test in each treatment group relative to the corresponding chlordiazepoxide-treated group. Percent Antagonism =100×[(Percent Fail in Chlordiazepoxide Group)-(Percent Fail in Test Group)/Percent Fail in Chlordiazepoxide Group]. […] The percent antagonism values for the compounds of the present invention that were tested are as follows: CP 113=0, CP 53=0, CP 59=0,CP 102=0,[…],CP 7=17,CP 8=17,CP 9=30,CP 10=30, CP 11=92, CP 12=92, CP 13=100. Compounds having values above 0 were considered active as agents for treating drug overdoses, particularly overdoses of benzodiazepine.

[2] = Suppression of anxiety (punished licking, conflict test) in the adult male rat; format: in vivo, male rats
Method in brief: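 Rats were deprived of water for 48 h and food for 24 h, with unpunished training the day before. Testing began at expected peak drug activity: 3-min session, every 20th lick punished by a 0.2-s shock.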

[3] = molecular target: benzodiazepine site of the GABA-A receptor; assay: Benzodiazepine Receptor Binding Assay (inhibition of 3H-flunitrazepam binding); conditions: ca. 3 nM 3H-flunitrazepam
[4] = Suppression of metrazol-induced convulsions; format: in vivo, male CD1 mice; conditions: mice; for ED50: Mus musculus, 0.5 h
[5] = Table 3, minimum effective dose, read-out: Conflict MED
[6] = Table 3, parenteral, clonic convulsions, read-out: Antimetrazol ED50
[7] = Table 1, ip, minimum effective dose, >10 = active dose not determined, read-out: Conflict (ip) MED
[8] = Table 1, 25° C., 10-20 min, >10,000 = not active
[9] = Table 1, ip, clonic convulsions after sc CD90 metrazol, >30 = active dose not determined, read-out: Metrazol (ip) ED50
[10] = Table 5, minimum effective dose, read-out: Conflict MED
[11] = Table 5, parenteral, clonic convulsions, read-out: Antimetrazol ED50

CNC(=O)C1=C(O)CCn2c1nc1ccccc12 [CP 102, 1,2-Dihydro-3-hydroxy-N-methyl-pyrido(1,2-a)benzimidazole-4-carboxamide]
percent antagonism [1]: 0%

O=C1CCN2C(=C1C(=O)Nc1ccc([N+](=O)[O-])cc1)Nc1ccccc12 [CP 9]
percent antagonism [1]: 30%

O=C(Nc1ccccc1F)C1=C(O)CCn2c1nc1cc(Cl)ccc12 [CP 113, 7-Chloro-1,2-dihydro-3-hydroxy-N-(2-fluorophenyl)-pyrido(1,2-a)benzimidazole-4-carboxamide]
percent antagonism [1]: 0%

O=C1CCN2C(=C1C(=O)Nc1ncncn1)Nc1ccccc12 [CP 53]
percent antagonism [1]: 0%

O=C(Nc1ccc(O)cc1)C1=C(O)CCn2c1nc1ccccc12 [CP 10, 1,2-Dihydro-3-hydroxy-N-(4-hydroxyphenyl)pyrido(1,2-a)benzimidazole-4-carboxamide]
percent antagonism [1]: 30%

O=C(NC1CCCCC1)C1=C(O)CCn2c1nc1ccccc12 [CP 7, N-Cyclohexyl-1,2-dihydro-3-hydroxy-pyrido(1,2-a)benzimidazole-4-carboxamide]
percent antagonism [1]: 17%

O=C(NCc1ccncc1)C1=C(O)CCn2c1nc1ccccc12 [CP 59, 1,2-Dihydro-3-hydroxy-N-(4-pyridylmethyl)pyrido(1,2-a)benzimidazole-4-carboxamide]
percent antagonism [1]: 0%

CN1C2=C(C(=O)Nc3ccccc3F)C(=O)CCN2c2ccccc21 [compound 122]
minimal effective dose [2, 5]: 0.03 mg/kg
IC50 ([3]; Table 3): < 1 nM
ED50 [4, 6]: 0.03 mg/kg

COc1cccc(NC(=O)C2=C3Nc4ccccc4N3CCC2=O)c1 [compound 21]
minimal effective dose [2, 7]: 5 mg/kg
IC50 [3, 8]: 26 nM
ED50 [4, 9]: 0.3 mg/kg

O=C1CCN2C(=C1C(=O)Nc1ccncc1)Nc1ccccc12 [compound 35]
minimal effective dose [2, 7]: 3 mg/kg
IC50 [3, 8]: 160 nM
ED50 [4, 9]: 2 mg/kg

O=C1CCN2C(=C1C(=O)NC1CC1)Nc1ccccc12 [compound 43]
minimal effective dose [2, 7]: > 10 mg/kg
IC50 [3, 8]: 16 nM
ED50 [4, 9]: > 10 mg/kg

CCN1C2=C(C(=O)Nc3ccccc3)C(=O)CCN2c2ccccc21 [compound 121]
minimal effective dose [2, 5]: < 1 mg/kg
IC50 ([3]; Table 3): < 0.1 nM
ED50 [4, 6]: < 1 mg/kg

O=C1CCN2C(=C1C(=O)Nc1ccnc(Cl)c1)Nc1ccccc12 [compound 52]
minimal effective dose [2, 7]: > 10 mg/kg
IC50 [3, 8]: 1400 nM
ED50 [4, 9]: > 10 mg/kg

CN(C)c1ccc(NC(=O)C2=C3N(CCCC2=O)c2ccccc2N3Cc2ccccc2)cc1 [compound 151]
minimal effective dose [2, 10]: > 10 mg/kg
IC50 ([3]; Table 5): 12400 nM
ED50 [4, 11]: > 10 mg/kg

O=C1CCN2C(=C1C(=O)Nc1ncc(C(F)(F)F)cc1C(F)(F)F)Nc1ccccc12 [compound 78]
minimal effective dose [2, 7]: 10 mg/kg
IC50 [3, 8]: > 10000 nM
ED50 [4, 9]: > 10 mg/kg

O=C1CCN2C(=C1C(=O)Nc1c(F)cc(F)cc1F)Nc1ccccc12 [compound 93]
minimal effective dose [2, 7]: 3 mg/kg
IC50 [3, 8]: 15 nM
ED50 [4, 9]: 1 mg/kg

Cc1cc(NC(=O)C2=C3Nc4ccccc4N3CCC2=O)ccn1 [compound 100]
minimal effective dose [2, 7]: > 10 mg/kg
IC50 [3, 8]: 820 nM
ED50 [4, 9]: > 10 mg/kg

O=C1CCN2C(=C1C(=O)Nc1cccnc1Cl)Nc1ccccc12 [compound 70]
minimal effective dose [2, 7]: 10 mg/kg
IC50 [3, 8]: 68 nM
ED50 [4, 9]: 3 mg/kg

COc1ccc(NC(=O)C2=C(O)CCn3c2nc2cc(OC)ccc23)cc1 [CP 13, 1,2-Dihydro-3-hydroxy-7-methoxy-N-(4-methoxyphenyl)pyrido(1,2-a)benzimidazole-4-carboxamide]
percent antagonism [1]: 100%

CSc1cnccc1NC(=O)C1=C2Nc3ccccc3N2CCC1=O [compound 66]
minimal effective dose [2, 7]: 10 mg/kg
IC50 [3, 8]: 3300 nM
ED50 [4, 9]: 10 mg/kg

COc1ccc(NC(=O)C2=C3Nc4ccccc4N3CCC2=O)cc1OC [compound 8]
minimal effective dose [2, 7]: > 10 mg/kg
IC50 [3, 8]: 32 nM
ED50 [4, 9]: > 30 mg/kg

Cc1cc(NC(=O)C2=C3Nc4ccccc4N3CCC2=O)on1 [compound 68]
minimal effective dose [2, 7]: > 10 mg/kg
IC50 [3, 8]: 54 nM
ED50 [4, 9]: > 10 mg/kg

O=C1CCN2C(=C1C(=O)Nc1ccncc1Cl)Nc1ccccc12 [compound 75]
minimal effective dose [2, 7]: > 10 mg/kg
IC50 [3, 8]: 220 nM
ED50 [4, 9]: 1 to 10 mg/kg

O=C1CCN2C(=C1C(=O)Nc1ccc3c(c1)CCN3)Nc1ccccc12 [compound 33]
minimal effective dose [2, 7]: 10 mg/kg
IC50 [3, 8]: 54 nM
ED50 [4, 9]: > 30 mg/kg

O=C1CCN2C(=C1C(=O)Nc1c(Cl)cccc1Cl)Nc1ccccc12 [compound 14]
minimal effective dose [2, 7]: > 10 mg/kg
IC50 [3, 8]: 320 nM
ED50 [4, 9]: 30 mg/kg

CN(C)c1cccc(NC(=O)C2=C3Nc4ccccc4N3CCC2=O)c1 [compound 34]
minimal effective dose [2, 7]: > 10 mg/kg
IC50 [3, 8]: 37 nM
ED50 [4, 9]: 4 mg/kg

O=C1CCN2C(=C1C(=O)Nc1ccccc1)Nc1cc(Cl)ccc12 [compound 81]
minimal effective dose [2, 7]: 10 mg/kg
IC50 [3, 8]: 66 nM
ED50 [4, 9]: > 10 mg/kg

CN1C2=C(C(=O)Nc3ccccc3)C(=O)CCN2c2ccccc21 [compound 120]
minimal effective dose [2, 5]: < 1 mg/kg
IC50 ([3]; Table 3): 6 nM
ED50 [4, 6]: < 1 mg/kg

O=C1CCN2C(=C1C(=O)Nc1cnccn1)Nc1ccccc12 [compound 63]
minimal effective dose [2, 7]: > 10 mg/kg
IC50 [3, 8]: 360 nM
ED50 [4, 9]: > 10 mg/kg

O=C1CCN2C(=C1C(=O)Nc1cc(F)ccc1F)Nc1ccccc12 [compound 98]
minimal effective dose [2, 7]: > 30 mg/kg
IC50 [3, 8]: 12 nM
ED50 [4, 9]: > 30 mg/kg

COc1ccc2c(c1)nc1n2CCC(O)=C1C(=O)Nc1ccccc1 [CP 12, 1,2-Dihydro-3-hydroxy-7-methoxy-N-(phenyl)pyrido(1,2-a)benzimidazole-4-carboxamide]
percent antagonism [1]: 92%

O=C1CCN2C(=C1C(=O)Nc1ccc(F)cc1F)Nc1ccccc12 [compound 92]
minimal effective dose [2, 7]: > 10 mg/kg
IC50 [3, 8]: 10 nM
ED50 [4, 9]: 1 mg/kg

O=C1CCN2C(=C1C(=O)Nc1ncc[nH]1)Nc1ccccc12 [compound 99]
minimal effective dose [2, 7]: > 10 mg/kg
IC50 [3, 8]: 185 nM
ED50 [4, 9]: > 30 mg/kg

O=C1CCN2C(=C1C(=O)Nc1ccc(F)cc1F)N(Cc1ccccc1)c1ccccc12 [compound 129]
minimal effective dose [2, 5]: > 10 mg/kg
IC50 ([3]; Table 3): 12 nM
ED50 [4, 6]: 1 mg/kg

CN1C2=C(C(=O)Nc3ccccc3F)C(=O)CCCN2c2ccccc21 [compound 147]
minimal effective dose [2, 10]: > 10 mg/kg
IC50 ([3]; Table 5): 22 nM
ED50 [4, 11]: > 10 mg/kg

O=C1CCN2C(=C1C(=O)NC1CCC1)Nc1ccccc12 [compound 83]
minimal effective dose [2, 7]: 10 mg/kg
IC50 [3, 8]: 30 nM
ED50 [4, 9]: > 30 mg/kg

O=C1CCN2C(=C1C(=O)Nc1ccc3ncccc3c1)Nc1ccccc12 [compound 41]
minimal effective dose [2, 7]: > 10 mg/kg
IC50 [3, 8]: 130 nM
ED50 [4, 9]: > 30 mg/kg

O=C1CCN2C(=C1C(=O)NCc1ccccc1)Nc1ccccc12 [compound 32]
minimal effective dose [2, 7]: > 10 mg/kg
IC50 [3, 8]: 38 nM
ED50 [4, 9]: > 30 mg/kg

O=C1CCN2C(=C1C(=O)Nc1c(F)c(F)nc(F)c1F)Nc1ccccc12 [compound 55]
minimal effective dose [2, 7]: > 10 mg/kg
IC50 [3, 8]: 350 nM
ED50 [4, 9]: > 10 mg/kg

O=C1CCN2C(=C1C(=O)Nc1ncncn1)Nc1ccccc12 [compound 53]
minimal effective dose [2, 7]: > 10 mg/kg
IC50 [3, 8]: 110 nM
ED50 [4, 9]: > 10 mg/kg

O=C1CCN2C(=C1C(=O)Nc1c(F)c(F)c(F)c(F)c1F)Nc1ccccc12 [compound 91]
minimal effective dose [2, 7]: 10 mg/kg
IC50 [3, 8]: 270 nM
ED50 [4, 9]: 1 to 10 mg/kg

Nc1ccccc1NC(=O)C1=C2Nc3ccccc3N2CCC1=O [compound 47]
minimal effective dose [2, 7]: 10 mg/kg
IC50 [3, 8]: 50 nM
ED50 [4, 9]: 3 mg/kg

N-(2-Fluorophenyl)-6-methyl-4-oxo-1,2,3,4-tetrahydro-6H-azepino(1,2-a)benzimidazol-5-carboxamide [CP 147]
Conflict (ip) MED ([2]; Table 1, ip, minimum effective dose, >10 = active dose not determined): 10 mg/kg
IC50 [3, 8]: 51 nM
Metrazol (ip) ED50 ([4]; Table 1, ip, clonic convulsions after sc CD90 metrazol, >30 = active dose not determined, 30 min): 5 mg/kg

O=C(Nc1ccccc1)c1c(=O)ccn2c1[nH]c1ccccc12 [compound 138]
minimal effective dose ([2]; Table 4, minimum effective dose, read-out: Conflict MED): 1 to 10 mg/kg
IC50 ([3]; Table 4): 24 nM
ED50 ([4]; Table 4, parenteral, clonic convulsions, read-out: Antimetrazol ED50): 0.5 mg/kg

O=C1CCN2C(=C1C(=O)Nc1ccccc1F)Nc1cc(F)ccc12 [compound 108]
minimal effective dose [2, 7]: 10 mg/kg
IC50 [3, 8]: 2 nM
ED50 [4, 9]: < 1 mg/kg

CSc1cc(N(C)C)ccc1NC(=O)C1=C2Nc3ccccc3N2CCC1=O [compound 79]
minimal effective dose [2, 7]: > 10 mg/kg
IC50 [3, 8]: 660 nM
ED50 [4, 9]: > 10 mg/kg
